For 30 compounds, IC50 results are on record in patent US20070249670A1, “Glycogen Phosphorylase Inhibitor Compounds and Pharmaceutical Compositions Thereof” (SMITHKLINE BEECHAM CORPORATION, priority 2004, published 2007).

Molecules are shown by their SMILES. Structures can show the parent of a compound that is named as a salt.

The assay deals with T1, human liver glycogen phosphorylase a (HLGPa) (Homo sapiens, UniProt P06737).
T1 construct: creating a full-length cDNA fused at the 5′ end to codons for methionine-glycine-alanine-histidine; 6xHis tag (leader Met-Gly-Ala-His6-Gly-Gly) (N); made in house; host or cells: E. coli (bacterial expression plasmid pTXK1007LTev)
T1 sequence (P06737 2-847 limits assumed): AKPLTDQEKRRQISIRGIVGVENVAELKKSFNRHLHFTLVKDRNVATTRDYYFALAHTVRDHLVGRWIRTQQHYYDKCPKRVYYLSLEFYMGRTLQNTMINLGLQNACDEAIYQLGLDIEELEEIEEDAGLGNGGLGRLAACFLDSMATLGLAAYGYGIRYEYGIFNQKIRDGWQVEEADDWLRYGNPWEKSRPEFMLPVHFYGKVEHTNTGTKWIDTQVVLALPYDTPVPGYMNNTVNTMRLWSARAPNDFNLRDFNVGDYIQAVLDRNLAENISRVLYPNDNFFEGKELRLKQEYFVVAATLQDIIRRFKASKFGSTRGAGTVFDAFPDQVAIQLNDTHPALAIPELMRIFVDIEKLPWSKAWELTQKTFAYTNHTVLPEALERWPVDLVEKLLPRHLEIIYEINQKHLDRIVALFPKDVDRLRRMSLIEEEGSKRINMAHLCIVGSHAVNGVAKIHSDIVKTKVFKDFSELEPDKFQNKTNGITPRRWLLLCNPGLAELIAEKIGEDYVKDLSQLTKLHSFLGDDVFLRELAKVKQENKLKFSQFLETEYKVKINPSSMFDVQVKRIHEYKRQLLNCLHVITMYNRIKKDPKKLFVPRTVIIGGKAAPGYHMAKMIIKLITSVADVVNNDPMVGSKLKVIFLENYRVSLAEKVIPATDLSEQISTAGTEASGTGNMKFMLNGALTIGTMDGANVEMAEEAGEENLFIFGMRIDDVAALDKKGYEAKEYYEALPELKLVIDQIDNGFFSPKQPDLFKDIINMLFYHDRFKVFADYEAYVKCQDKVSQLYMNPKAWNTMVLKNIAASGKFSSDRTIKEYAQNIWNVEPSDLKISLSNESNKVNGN
Nature of the assay: Human liver glycogen phosphorylase a enzymatic activity assay (coupled, fluorescent resorufin readout, with and without 10 mM glucose). Type of assay: biochemical. The conditions noted are these: human liver glycogen phosphorylase a enzymatic activity assay.

As a reminder, the IC50 is the midpoint of a concentration-inhibition curve. Low readings indicate greater potency, high ones weaker potency. Turning to `Cc1cccc(C)c1NC(=O)Nc1cc2ccccc2cc1C(=O)N[C@@H](Cc1c[nH]c2ccccc12)C(=O)O` [Example 54, N-[3-({[(2,6-dimethylphenyl)amino]carbonyl}amino)-2-naphthoyl]-L-tryptophan trifluoroacetate], inhibition was half-maximal at 0.51 µM (IC50).

On to `O=C(O)CC[C@H](NC(=O)c1cc2ccccc2cc1NC(=O)Nc1ccccc1Cl)C(=O)O` [Example 55, N-[3-({[(2-chlorophenyl)amino]carbonyl}amino)-2-naphthoyl]-L-glutamic acid], for which half-maximal inhibition (IC50) required 10.4 µM. This IC50 lies about 20-fold higher than the previous one.

`O=C(Nc1ccccc1Cl)Nc1cc2ccccc2cc1C(=O)N[C@@H](Cc1cnc[nH]1)C(=O)O` [Example 56, N-[3-({[(2-chlorophenyl)amino]carbonyl}amino)-2-naphthoyl]-L-histidine trifluoroacetate] yielded an IC50 of 3.08 µM.

On to `O=C(Nc1ccccc1Cl)Nc1cc2ccccc2cc1C(=O)N[C@@H](Cc1ccccc1)C(=O)O` [Example 57, N-[3-({[(2-chlorophenyl)amino]carbonyl}amino)-2-naphthoyl]-L-phenylalanine], for which the IC50 worked out at 5.21 µM.

The compound `O=C(Nc1ccccc1Cl)Nc1cc2ccccc2cc1C(=O)N[C@@H](Cc1c[nH]c2ccccc12)C(=O)O` [Example 58, N-[3-({[(2-chlorophenyl)amino]carbonyl}amino)-2-naphthoyl]-L-tryptophan trifluoroacetate] displayed an IC50 of 4.7 µM.

As to `Cc1cccc(Cl)c1NC(=O)Nc1cc2ccccc2cc1C(=O)N[C@@H](CCCCN)C(=O)O` [Example 59, N-[3-({[(2-chloro-6-methylphenyl)amino]carbonyl}amino)-2-naphthoyl]-L-lysine trifluoroacetate], the half-maximal inhibitory concentration (IC50) is 2.99 µM.

In turn, `CSCC[C@H](NC(=O)c1cc2ccccc2cc1NC(=O)Nc1c(C)cccc1Cl)C(=O)O` [Example 60, N-[3-({[(2-chloro-6-methylphenyl)amino]carbonyl}amino)-2-naphthoyl]-L-methionine] displayed an IC50 of 0.64 µM. This IC50 lies about 4.7-fold lower than the previous one.

In turn, `Cc1cccc(Cl)c1NC(=O)Nc1cc2ccccc2cc1C(=O)N[C@@H](Cc1cnc[nH]1)C(=O)O` [Example 61, N-[3-({[(2-chloro-6-methylphenyl)amino]carbonyl}amino)-2-naphthoyl]-L-histidine trifluoroacetate] gave an IC50 of 0.45 µM.

As for `Cc1cccc(Cl)c1NC(=O)Nc1cc2ccccc2cc1C(=O)N[C@@H](Cc1ccccc1)C(=O)O` [Example 62, N-[3-({[(2-chloro-6-methylphenyl)amino]carbonyl}amino)-2-naphthoyl]-L-phenylalanine], the midpoint of inhibition, the IC50, lay at 0.26 µM.

As to `Cc1cccc(Cl)c1NC(=O)Nc1cc2ccccc2cc1C(=O)N[C@@H](CCCNC(=N)N)C(=O)O` [Example 63, N-[3-({[(2-chloro-6-methylphenyl)amino]carbonyl}amino)-2-naphthoyl]-L-arginine], the IC50 came to 2.73 µM.

Regarding `Cc1cccc(Cl)c1NC(=O)Nc1cc2ccccc2cc1C(=O)N[C@@H](Cc1ccc(O)cc1)C(=O)O` [Example 64, N-[3-({[(2-chloro-6-methylphenyl)amino]carbonyl}amino)-2-naphthoyl]-L-tyrosine], the half-maximal inhibitory concentration (IC50) worked out at 0.45 µM.

In the case of `Cc1cccc(Cl)c1NC(=O)Nc1cc2ccccc2cc1C(=O)N[C@@H](Cc1c[nH]c2ccccc12)C(=O)O` [Example 65, N-[3-({[(2-chloro-6-methylphenyl)amino]carbonyl}amino)-2-naphthoyl]-L-tryptophan trifluoroacetate], the half-inhibitory concentration (IC50) was 0.27 µM.

`Cc1cccc(Cl)c1NC(=O)Nc1cc(F)c(F)cc1C(=O)N[C@@H](CC(=O)O)C(=O)O` [Example 66, N-[2-({[(2-chloro-6-methylphenyl)amino]carbonyl}amino)-4,5-difluorobenzoyl]-L-aspartic acid] displayed a concentration for half-maximal inhibition (IC50) of 7.16 µM.

`COc1cc(NC(=O)Nc2c(C)cccc2Cl)c(C(=O)N[C@@H](CC(=O)O)C(=O)O)cc1OC` [Example 67, N-[2-({[(2-chloro-6-methylphenyl)amino]carbonyl}amino)-4,5-dimethoxybenzoyl]-L-aspartic acid]: half-maximal inhibition (IC50) required 19.8 µM.

Consider `Cc1cccc(Cl)c1NC(=O)Nc1cc(F)c(F)cc1C(=O)N[C@@H](CC(C)C)C(=O)O` [Example 68, N-[2-({[(2-chloro-6-methylphenyl)amino]carbonyl}amino)-4,5-difluorobenzoyl]-L-leucine], for which the IC50 came out at 7.54 µM.

In the case of `COc1cc(NC(=O)Nc2c(C)cccc2Cl)c(C(=O)N[C@@H](CC(C)C)C(=O)O)cc1OC` [Example 69, N-[2-({[(2-chloro-6-methylphenyl)amino]carbonyl}amino)-4,5-dimethoxybenzoyl]-L-leucine], the half-maximal inhibitory concentration (IC50) stood at 13.8 µM.

The compound `CC[C@H](C)[C@H](NC(=O)c1cc(F)c(F)cc1NC(=O)Nc1c(C)cccc1Cl)C(=O)O` [Example 70, N-[2-({[(2-chloro-6-methylphenyl)amino]carbonyl}amino)-4,5-difluorobenzoyl]-L-isoleucine] returned a concentration for half-maximal inhibition (IC50) of 5.97 µM.

In the case of `CC[C@H](C)[C@H](NC(=O)c1cc(OC)c(OC)cc1NC(=O)Nc1c(C)cccc1Cl)C(=O)O` [Example 71, N-[2-({[(2-chloro-6-methylphenyl)amino]carbonyl}amino)-4,5-dimethoxybenzoyl]-L-isoleucine], the IC50 worked out at 22.3 µM.

The compound `Cc1cccc(Cl)c1NC(=O)Nc1cc(F)c(F)cc1C(=O)N[C@@H](Cc1ccccc1)C(=O)O` [Example 72, N-[2-({[(2-chloro-6-methylphenyl)amino]carbonyl}amino)-4,5-difluorobenzoyl]-L-phenylalanine] displayed an IC50 of 10.9 µM.

Compound `COc1cc(NC(=O)Nc2c(C)cccc2Cl)c(C(=O)N[C@@H](Cc2ccccc2)C(=O)O)cc1OC` [Example 73, N-[2-({[(2-chloro-6-methylphenyl)amino]carbonyl}amino)-4,5-dimethoxybenzoyl]-L-phenylalanine] showed an IC50 of 11.6 µM. This IC50 and that of the compound before are within 1.5-fold of each other.

Regarding `Cc1cccc(Cl)c1NC(=O)Nc1cc(F)c(F)cc1C(=O)N[C@@H](Cc1c[nH]c2ccccc12)C(=O)O` [Example 74, N-[2-({[(2-chloro-6-methylphenyl)amino]carbonyl}amino)-4,5-difluorobenzoyl]-L-tryptophan trifluoroacetate], half-maximal inhibition (IC50) required 6.58 µM.

Take `COc1cc(NC(=O)Nc2c(C)cccc2Cl)c(C(=O)N[C@@H](Cc2c[nH]c3ccccc23)C(=O)O)cc1OC` [Example 75, N-[2-({[(2-chloro-6-methylphenyl)amino]carbonyl}amino)-4,5-dimethoxybenzoyl]-L-tryptophan trifluoroacetate]: the midpoint of inhibition, the IC50, lay at 0.76 µM. This IC50 lies about 8.7-fold lower than the previous one.

As for `O=C(Nc1ccccc1Cl)Nc1cc(F)c(F)cc1C(=O)N[C@@H](Cc1c[nH]c2ccccc12)C(=O)O` [Example 76, N-[2-({[(2-chlorophenyl)amino]carbonyl}amino)-4,5-difluorobenzoyl]-L-tryptophan trifluoroacetate], the IC50 is 3.74 µM. This IC50 is about 4.9-fold higher than that of the compound before.

Regarding `COc1cc(NC(=O)Nc2ccccc2Cl)c(C(=O)N[C@@H](Cc2c[nH]c3ccccc23)C(=O)O)cc1OC` [Example 77, N-[2-({[(2-chlorophenyl)amino]carbonyl}amino)-4,5-dimethoxybenzoyl]-L-tryptophan trifluoroacetate], the half-maximal inhibitory concentration (IC50) is 9.05 µM.

`Cc1cccc(C)c1NC(=O)Nc1cc(F)c(F)cc1C(=O)N[C@@H](CC(=O)O)C(=O)O` [Example 78, N-[2-({[(2,6-dimethylphenyl)amino]carbonyl}amino)-4,5-difluorobenzoyl]-L-aspartic acid] had a concentration for half-maximal inhibition (IC50) of 9.11 µM.

Regarding `Cc1cccc(C)c1NC(=O)Nc1cc(F)c(F)cc1C(=O)N[C@@H](CC(C)C)C(=O)O` [Example 79, N-[2-({[(2,6-dimethylphenyl)amino]carbonyl}amino)-4,5-difluorobenzoyl]-L-leucine], the 50% inhibitory concentration (IC50) was found to be 18.7 µM.

For `CC[C@H](C)[C@H](NC(=O)c1cc(F)c(F)cc1NC(=O)Nc1c(C)cccc1C)C(=O)O` [Example 80, N-[2-({[(2,6-dimethylphenyl)amino]carbonyl}amino)-4,5-difluorobenzoyl]-L-isoleucine], the midpoint of inhibition, the IC50, lay at 8.73 µM.

`Cc1cccc(C)c1NC(=O)Nc1cc(F)c(F)cc1C(=O)N[C@@H](Cc1ccccc1)C(=O)O` [Example 81, N-[2-({[(2,6-dimethylphenyl)amino]carbonyl}amino)-4,5-difluorobenzoyl]-L-phenylalanine] had an IC50 of 14.7 µM.

Compound `COc1cc(NC(=O)Nc2c(C)cccc2C)c(C(=O)N[C@@H](Cc2c[nH]c3ccccc23)C(=O)O)cc1OC` [Example 82, N-[2-({[(2,6-dimethylphenyl)amino]carbonyl}amino)-4,5-dimethoxybenzoyl]-L-tryptophan trifluoroacetate] gave a half-inhibitory concentration (IC50) of 9.41 µM.

On to `CCc1cccc(CC)c1NC(=O)Nc1ccccc1C(=O)N[C@@H](CC(=O)O)C(=O)O` [Example 83, N-[2-({[(2,6-diethylphenyl)amino]carbonyl}amino)benzoyl]-L-aspartic acid], for which the IC50 came out at 34.1 µM.
